Measurements taken from US12151000B2, “Tolerogenic artificial antigen-presenting cells” (THE JOHNS HOPKINS UNIVERSITY, priority 2019, dated 2024).

Key:
IL-2Rα^− YT-1 cells = assay: YT-1 cell STAT5 phosphorylation, IL-2Rα− cells; type: cell-based, human; details: flow cytometry, 20 minutes stimulation
Protocol: (§1) YT-1 cell STAT5 phosphorylation studies. Approximately 2×10^5 IL-2Rα^− YT-1 or IL-2Rα^+ YT-1 cells were plated in each well of a 96-well plate and re-suspended in RPMI complete medium containing serial dilutions of the indicated treatments. Cytokine/antibody complexes were formed by incubating a 1:1 molar ratio of F5111 antibody to hIL-2 for 1 hour at 37° C. Cells were stimulated for 20 minutes at 37° C. and immediately fixed by addition of formaldehyde to 1.5% and 10 minute incubation at room temperature. Permeabilization of cells was achieved by resuspension in ice-cold 100% methanol for 30 minutes at 4° C. Fixed and permeabilized cells were washed twice with FACS buffer (phosphate-buffered saline [PBS] pH 7.2 containing 0.1% BSA [Thermo Fisher Scientific]) and incubated with Alexa Fluor® 647-conjugated anti-STAT5 pY694 (BD Biosciences) diluted in FACS buffer for 2 hours at room temperature. Cells were then washed twice in FACS buffer and mean fluorescence intensity (MFI) was determined on a CytoFLEX flow cytometer (Beckman-Coulter). Dose-response curves were fitted to a logistic model and half-maximal effective concentrations (EC50s) were calculated using GraphPad Prism data analysis software after subtraction of the mean fluorescence intensity (MFI) of unstimulated cells and normalization to the maximum signal intensity.
(§2) A cell signaling assay was performed on YT-1 human NK cells with or without IL-2Rα.

human IL-2 (hIL-2) = molecular target: T1, human IL-2 (hIL-2) (Homo sapiens, UniProt P60568); assay: Yeast surface binding study, yeast-displayed hIL-2, flow cytometry; details: yeast surface-displayed hIL-2
T1 construct: hIL-2 (residues 1-133) or mIL-2 (residues 1-149) were cloned into the pCT302 vector; made in house; host or cells: yeast (surface display)
T1 sequence (P60568 21-153): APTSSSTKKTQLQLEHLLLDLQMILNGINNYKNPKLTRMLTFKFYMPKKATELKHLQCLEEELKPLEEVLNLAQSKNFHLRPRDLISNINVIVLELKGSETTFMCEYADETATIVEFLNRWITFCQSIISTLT
Protocol: Yeast surface binding studies. For antibody binding studies on yeast, hIL-2 (residues 1-133) or mIL-2 (residues 1-149) were cloned into the pCT302 vector and presented on the surface of yeast, as described previously (Boder et al., Nat. Biotechnol., 15(6): 553-557 (1997)). […] Cells were then washed and stained with a 1:200 dilution of Alexa647-conjugated streptavidin (Thermo) in PBSA for 15 minutes at 4° C. After a final wash, cells were analyzed for antibody binding using a CytoFLEX flow cytometer (Beckman Coulter). Background-subtracted and normalized binding curves were fitted to a first-order binding model and equilibrium dissociation constant (KD) values were determined using GraphPad Prism. Studies were performed three times with similar results.
A rapid small-scale HEK 293F cell transfection assay was developed to optimize immunocytokine expression. Cells were transfected in 6-well plates with predefined ratios of heavy chain (HC) and IL-2-fused light chain (LC) plasmid DNA. After a 3-day incubation, secreted protein was captured from the supernatant with protein G resin, eluted with 0.1 M glycine pH 2.0, and analyzed via SDS-PAGE. […]
(§3) The binding affinities were also evaluated using bio-layer interferometry on an OCTET® instrument with biotinylated hIL-2 immobilized on a streptavidin-coated tip (FIG. 6B). […]

immobilized hIL-2 = molecular target: T2, immobilized hIL-2 (Homo sapiens, UniProt P60568); assay: Bio-layer interferometry binding to immobilized hIL-2; details: biotinylated hIL-2 immobilized
T2 construct: The full hIL-2 cytokine (residues 1-133) and the extracellular domains; hexahistidine (C); made in house; host or cells: HEK 293F
T2 sequence (P60568 21-153): as above
Protocol: (§4) Bio-layer interferometry binding studies. […] Less than 5 signal units (nm) of receptor was immobilized to minimize mass transfer effects. […] An irrelevant protein was included in a reference well to subtract non-specific binding. Surface regeneration for all interactions was conducted using a 15 second exposure to 0.1 M glycine pH 3.0. Experiments were carried out in PBSA (phosphate-buffered saline, pH 7.3 plus 0.1% bovine serum albumin (BSA, Thermo Fisher Scientific)) at 25° C. Data was visualized and processed using the Octet® Data Analysis software version 7.1 (Molecular Devices). Equilibrium titration curve fitting and KD value determination was implemented using GraphPad Prism, assuming all binding interactions to be first order. Experiments were reproduced two times with similar results.
(§5) The binding affinities were also evaluated using bio-layer interferometry on an OCTET® instrument with biotinylated hIL-2 immobilized on a streptavidin-coated tip (FIG. 6B). […] Bio-layer interferometry based binding studies were also conducted to assess the interaction between F5111 IC LN15 and the IL-2Rα and IL-2Rβ receptor chains, to ensure that the single-chain antibody/cytokine fusion was biased toward engagement of IL-2Rα (which is highly expressed on TReg cells but not effector cells) compared with IL-2Rβ.

IL-2Rβ = molecular target: T3, IL-2Rβ (Homo sapiens, UniProt P14784); assay: Bio-layer interferometry binding to immobilized IL-2Rβ
T3 construct: the extracellular domains of the hIL-2Rα (residues 1-214) and hIL-2Rβ (residues 1-214) receptor subunits; hexahistidine (C); made in house; host or cells: HEK 293F
T3 sequence (P14784 27-240): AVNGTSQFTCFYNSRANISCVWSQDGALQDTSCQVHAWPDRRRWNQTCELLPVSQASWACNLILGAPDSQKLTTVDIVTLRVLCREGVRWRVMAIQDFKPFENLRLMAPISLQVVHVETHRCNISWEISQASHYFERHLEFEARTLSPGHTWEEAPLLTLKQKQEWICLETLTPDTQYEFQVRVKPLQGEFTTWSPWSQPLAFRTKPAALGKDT
Protocol: as §4, §5
(§6) Additionally, binding interactions between F5111 IC LN25 and LN35 with the human IL-2Rα (hIL-2Rα) and hIL-2Rβ subunits were measured using bio-layer interferometry on an Octet® instrument by immobilizing biotinylated hIL-2Rα and IL-2Rβ on streptavidin-coated tips.

IL-2Rα = molecular target: T4, IL-2Rα (Homo sapiens, UniProt P01589); assay: Bio-layer interferometry binding to immobilized IL-2Rα
T4 construct: the extracellular domains of the hIL-2Rα (residues 1-214) and hIL-2Rβ (residues 1-214) receptor subunits; hexahistidine (C); made in house; host or cells: HEK 293F
T4 sequence (P01589 22-235): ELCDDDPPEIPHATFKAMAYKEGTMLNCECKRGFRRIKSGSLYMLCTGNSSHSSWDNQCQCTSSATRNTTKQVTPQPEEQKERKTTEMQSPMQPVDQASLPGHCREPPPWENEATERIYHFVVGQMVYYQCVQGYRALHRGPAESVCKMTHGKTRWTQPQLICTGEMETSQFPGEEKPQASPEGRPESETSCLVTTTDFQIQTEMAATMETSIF
Protocol: as §4, §3, §6

IL-2Rα^+ YT-1 cells = assay: YT-1 cell STAT5 phosphorylation, IL-2Rα+ cells; type: cell-based, human; details: for STAT5 activation on IL-2Rα^+ YT-1 cells: flow cytometry, 20 minutes stimulation; for selective activation of IL-2Rα^+ TReg-like cells over IL-2Rα^− TEff-like cells (bias): YT-1 cells with or without IL-2Rα
Protocol: as §1, §2

[1] = tested on: CD4^+ T cells from B6 mice; assay: In vitro FOXP3+ cell expansion in B6 CD4+ T cells; type: cell-based, mouse; details: 3 days
Protocol: F5111 IC LN35-loaded microparticles or free F5111 IC LN35 (at a dose equivalent to the particle loading dose) were incubated with CD4+ cells from B6 mice for 3 days, and cells were analyzed for FOXP3 expression via flow cytometry.
To determine whether F5111 IC-encapsulated MPs could induce in vitro TReg cell expansion, CD4^+ T cells were isolated from the spleens of B6 mice and incubated with unconjugated F5111 IC or F5111 IC-loaded PLGA MPs for 3 days. Cells were then stained for CD4, CD25, and FOXP3, and analyzed using flow cytometry.

[2] = tested on: human PBMCs (TReg cells, CD8^+ and CD4^+ effector T cells); assay: Human PBMC STAT5 phosphorylation in T cell subsets; type: cell-based; details: human PBMCs from healthy donor whole blood
Protocol: Human PBMC STAT5 phosphorylation studies. Human PBMCs were isolated from whole blood of healthy donors via Ficoll gradient following manufacturer protocols and then incubated with ACK lysis buffer for removal of red blood cells. Approximately 1×10^6 human PBMCs were plated in each well of a 96-well plate and re-suspended in RPMI complete medium containing serial dilutions of the indicated treatments. Cytokine/antibody complexes were formed by incubating a 1:1 molar ratio of F5111 antibody to hIL-2 for 1 hour at 37° C. Cells were stimulated for 20 minutes at 37° C. and immediately fixed by addition of 1X Fix/Perm Buffer (BD Biosciences) and 50 minute incubation at 4° C. Permeabilization of cells was achieved by resuspension in Perm Buffer III (BD Biosciences) overnight at −20° C. […] Cells were then washed twice in FACS buffer and MFI was determined on a CytoFLEX flow cytometer (Beckman-Coulter). Dose-response curves were fitted to a logistic model and half-maximal effective concentrations (EC50s) were calculated using GraphPad Prism data analysis software after subtraction of the mean fluorescence intensity (MFI) of unstimulated cells and normalization to the maximum signal intensity. […]

[3] = tested on: CD4+ T cells from C57BL/6 mice; assay: pSTAT5 expression in C57BL/6 CD4+ T cells; type: cell-based, mouse
Protocol: FIG. 22 is a graph showing the results of B6 CD4+ cells stimulation with titrated encapsulated particle doses or equivalent free doses of F5111 for different lengths of time, and the analysis of pSTAT5 expression using flow cytometry. A dose titration for free and MP-loaded F5111 IC LN35 was observed, with maximum pSTAT5 expression achieved after 1 hour of stimulation.
To evaluate the functionality of F5111 IC-loaded particles, mouse CD4+ T cells were stimulated with F5111 IC-loaded microparticles to identify an optimal stimulation time for maximum pSTAT5 expression, and pSTAT5 expression was compared to that of cells stimulated with free F5111 IC. CD4+ T cells were isolated from C57BL/6 mice and incubated with various doses of F5111 IC-loaded microparticles or equivalent doses of free F5111 IC for 20, 40, 60, or 120 minutes.

Substance	STAT5 activation on IL-2Rα^− YT-1 cells (IL-2Rα^− YT-1 cells)	binding affinity for hIL-2 relative to F5111 Ab (human IL-2 (hIL-2))	binding affinity for hIL-2 relative to F5111 Ab (immobilized hIL-2)	binding to IL-2Rβ compared to free IL-2 (IL-2Rβ)	binding to IL-2Rα compared to free IL-2 (IL-2Rα)	STAT5 activation on IL-2Rα^+ YT-1 cells (IL-2Rα^+ YT-1 cells)	selective activation of IL-2Rα^+ TReg-like cells over IL-2Rα^− TEff-like cells (bias) (IL-2Rα^+ YT-1 cells)	expansion of FOXP3+ cells compared to untreated cells [1]	STAT5 activation of TReg cells compared to CD8^+ and CD4^+ effector T cells [2]	stimulation time of maximum pSTAT5 activation [3] [minutes]	activation (pSTAT5) of CD4^+ T cells ([3]; various doses, 20, 40, 60, or 120 minutes)
F5111 IC LN15: immunocytokine: hIL-2 fused to N-terminus of F5111 antibody light chain by 15-amino acid (Gly4Ser)3 linker	dramatically reduced	significant reduction in binding affinity	significant reduction in binding affinity	significantly impaired binding	equal potency to the free IL-2 cytokine	only mildly impaired	–	–	–	–	–
F5111 IC LN25: immunocytokine: hIL-2 fused to N-terminus of F5111 antibody light chain by 25-amino acid (Gly4Ser)5 linker	immeasurable	–	–	significant reduction in the binding affinity	–	sub-nanomolar concentrations	greater bias than F5111 IC LN15 and the hIL-2/F5111 complex	–	–	–	–
F5111 IC LN35: immunocytokine: hIL-2 fused to N-terminus of F5111 antibody light chain by 35-amino acid (Gly4Ser)7 linker	immeasurable	–	–	significant reduction in the binding affinity	–	sub-nanomolar concentrations	greater bias than F5111 IC LN15 and the hIL-2/F5111 complex	expanded FOXP3+ cells	significantly more potent activation	60	dose-dependent manner
